According to publication PMC5574958, “Radiosynthesis and Preclinical Evaluation of [^18F]F-DPA, A Novel Pyrazolo[1,5a]pyrimidine Acetamide TSPO Radioligand, in Healthy Sprague Dawley Rats” (Molecular Imaging and Biology, 2017):

Assays:
[1] = In vivo PET/CT imaging, time-activity curves; design: species or system Sprague Dawley rats
Protocol: Rats were anesthetized with isoflurane/oxygen gas and injected intravenously with [^18F]F-DPA (31.4 ± 2.1 MBq, n = 4 SA at the time of injection = 4.1 ± 0.4 GBq/μmol) for scanning by an Inveon multimodality PET/CT tomograph (Siemens Medical Solutions, Knoxville, TN, USA). In order to prevent eye dryness, a few drops of Oftagel (25 mg/g; Santen, Tampere, Finland) were applied to the eyes of the animals. The scanner has a 12.7 cm axial field of view (FOV) and 10 cm transaxial FOV generating images from 159 transaxial slices. The spatial resolution of the scanner is 1.4 mm according to the manufacturer’s specifications. The animals were scanned for 10 min with computed tomography (CT) for attenuation correction and anatomical reference, and immediately after that, the radiotracer was injected for a 60-min dynamic PET scan. Frames were taken at the following intervals: 30 × 10, 15 × 60, 4 × 300, and 2 × 600 s. Volume of interests (VOIs) were drawn over the whole brain, heart, lung, liver, and kidneys using Inveon Research Workplace Image Analysis software (Siemens Medical Solutions). From the VOIs, time–activity curves (TACs) were obtained and the uptake of [^18F]F-DPA was expressed as percentage of injected dose per milliliter of tissue (%inj. dose/ml).

Ex vivo biodistribution = assay type: in vivo, Sprague Dawley rats; conditions: for Uptake of fluorine-18-radioactivity, Harderian gland / Uptake of fluorine-18-radioactivity, Brain / Uptake of fluorine-18-radioactivity, Brown fat / Uptake of fluorine-18-radioactivity, Eye x2 / Uptake of fluorine-18-radioactivity, Injection site (tail) / Uptake of fluorine-18-radioactivity, Large int. Wall + contents / Uptake of fluorine-18-radioactivity, Liver / Uptake of fluorine-18-radioactivity, Lung / Uptake of fluorine-18-radioactivity, Muscle / Uptake of fluorine-18-radioactivity, Salivary x2 / Uptake of fluorine-18-radioactivity, Small int. wall + contents / Uptake of fluorine-18-radioactivity, Stomach wall + contents / Uptake of fluorine-18-radioactivity, Testis: mean, n = 3
Protocol: After sacrifice (5, 15, 30, 60, and 90 min after injection, n = 3, for every time point and radiotracer), the blood was collected into Li-heparin tubes and transcardial perfusion with saline was conducted rapidly in order to eliminate the blood from the whole body. Following this, the organs of the animals were collected, individually weighed, and the radioactivity was measured using a gamma counter (Wizard^2 3 × 3″, PerkinElmer, Turku, Finland). The decay-corrected radioactivity is reported as percentage of injected dose per gram (%ID/g).

[2] = Plasma protein binding (ultrafiltration of plasma after tracer injection); assay type: in vivo, Sprague Dawley rats; conditions: 15 min after injection, 30 kDa ultrafiltration, n = 3
Protocol: After 15 min, the animals were sacrificed and the blood was collected into Li-heparin tubes and centrifuged (3000×g, 10 min). A 10-μl aliquot of the plasma was spotted onto a TLC plate; following this, the remaining plasma was filtered by ultrafiltration using Microsep 30K Omega (Pall Life Sciences, Mexico) with a cut-off of 30 kDa. A 10-μl aliquot of the resulting supernatant was also spotted onto the TLC plate. The plates were exposed onto an imaging plate (Fuji BAS Imaging Plate TR2025, Fuji Photo Film Co., Ltd., Tokyo, Japan) for approximately two half-lives of fluorine-18 (3.5 to 4 h). After the exposure, the imaging plates were scanned using a BAS-5000 reader (Fuji, Japan) with a resolution of 50 μm and the saved images were analyzed using TINA software (version 2.10 g, Raytest, Isotopenmessgeräte, GmbH, Straubenhardt, Germany).

[3] = RadioTLC analyses of radiometabolites in plasma and brain homogenates; assay type: in vivo, Sprague Dawley rats; conditions: for Unchanged radiotracer, share of radioactivity in the brain: brain homogenate
Protocol: The blood samples were taken into Li-heparin tubes and centrifuged (3000×g, 10 min). The plasma was transferred to an Eppendorf tube and the plasma proteins were precipitated by addition of 1.5 parts of MeOH by volume. Following a further centrifugation (12,000×g, 4 min), 20 μl of the supernatant was spotted onto an aluminum-backed silica gel 60/Kieselguhr F254 TLC plate (EMD Millipore 1.05567.0001, Merck Millipore, Darmstadt, Germany).
Brain samples from the cortex were homogenized with approximately 200 μl of 1:1 v/v of MeOH and water; the mixture was transferred to an Eppendorf tube and centrifuged (12,000×g, 4 min). An aliquot (20 μl) of the supernatant was spotted onto the TLC plate.
The TLC plates were developed with a mixture of dichloromethane and methanol (9:1, v/v) for a distance of 6 cm. Following this, the plates were exposed onto an imaging plate (Fuji BAS Imaging Plate TR2025, Fuji Photo Film Co., Ltd., Tokyo, Japan) for approximately two half-lives of fluorine-18 (3.5 to 4 h). After the exposure, the imaging plates were scanned using a BAS-5000 reader (Fuji, Japan) with a resolution of 50 μm and the saved images were analyzed using TINA software (version 2.10 g, Raytest, Isotopenmessgeräte, GmbH, Straubenhardt, Germany).

CBR = conditions: read-out: K i CBR (selectivity); cited from earlier work

CCN(CC)C(=O)Cc1c(-c2ccc([18F])cc2)nn2c(C)cc(C)nc12 [[^18F]F-DPA]
Excretion pathway ([1]; in vivo TACs, high F-18 radioactivity in the intestine): excreted via the hepatobiliary pathway
Time after injection at which concentration equilibrium is reached in the brain ([1]; whole brain TAC, i.v. injection, 60-min dynamic PET): 20 to 30 min
Uptake of fluorine-18-radioactivity, Harderian gland (Ex vivo biodistribution; 5 min after injection): 0.54 %ID/g tissue
Uptake of fluorine-18-radioactivity, Harderian gland (Ex vivo biodistribution; 15 min after injection): 0.59 %ID/g tissue
Uptake of fluorine-18-radioactivity, Harderian gland (Ex vivo biodistribution; 30 min after injection): 0.62 %ID/g tissue
Uptake of fluorine-18-radioactivity, Harderian gland (Ex vivo biodistribution; 60 min after injection): 0.83 %ID/g tissue
Uptake of fluorine-18-radioactivity, Harderian gland (Ex vivo biodistribution; 90 min after injection): 0.55 %ID/g tissue
Accumulation of radioactivity in the bone (defluorination in vivo) (Ex vivo biodistribution; after the initial uptake at 5 min, up to 90 min): no significant accumulation of radioactivity in the bone
Uptake of fluorine-18-radioactivity, Brain (Ex vivo biodistribution; 5 min after injection): 0.23 %ID/g tissue
Uptake of fluorine-18-radioactivity, Brain (Ex vivo biodistribution; 15 min after injection): 0.17 %ID/g tissue
Uptake of fluorine-18-radioactivity, Brain (Ex vivo biodistribution; 30 min after injection): 0.09 %ID/g tissue
Uptake of fluorine-18-radioactivity, Brain (Ex vivo biodistribution; 60 min after injection): 0.07 %ID/g tissue
Uptake of fluorine-18-radioactivity, Brain (Ex vivo biodistribution; 90 min after injection): 0.06 %ID/g tissue
Uptake of fluorine-18-radioactivity, Brown fat (Ex vivo biodistribution; 5 min after injection): 0.28 %ID/g tissue
Uptake of fluorine-18-radioactivity, Brown fat (Ex vivo biodistribution; 15 min after injection): 0.43 %ID/g tissue
Uptake of fluorine-18-radioactivity, Brown fat (Ex vivo biodistribution; 30 min after injection): 1.11 %ID/g tissue
Uptake of fluorine-18-radioactivity, Brown fat (Ex vivo biodistribution; 60 min after injection): 0.44 %ID/g tissue
Uptake of fluorine-18-radioactivity, Brown fat (Ex vivo biodistribution; 90 min after injection): 0.95 %ID/g tissue
Blood radioactivity compared with [^18F]DPA-714 (Ex vivo biodistribution; ex vivo %ID/g, two-tailed unpaired t test, P ≤ 0.006): significantly lower
Uptake of fluorine-18-radioactivity, Eye x2 (Ex vivo biodistribution; eye x2, 5 min after injection): 0.32 %ID/g tissue
Uptake of fluorine-18-radioactivity, Eye x2 (Ex vivo biodistribution; eye x2, 15 min after injection): 0.29 %ID/g tissue
Uptake of fluorine-18-radioactivity, Eye x2 (Ex vivo biodistribution; eye x2, 30 min after injection): 0.21 %ID/g tissue
Uptake of fluorine-18-radioactivity, Eye x2 (Ex vivo biodistribution; eye x2, 60 min after injection): 0.16 %ID/g tissue
Uptake of fluorine-18-radioactivity, Eye x2 (Ex vivo biodistribution; eye x2, 90 min after injection): 0.16 %ID/g tissue
Uptake of fluorine-18-radioactivity, Injection site (tail) (Ex vivo biodistribution; 5 min after injection): 0.36 %ID/g tissue
Uptake of fluorine-18-radioactivity, Injection site (tail) (Ex vivo biodistribution; 15 min after injection): 0.38 %ID/g tissue
Uptake of fluorine-18-radioactivity, Injection site (tail) (Ex vivo biodistribution; 30 min after injection): 0.28 %ID/g tissue
Uptake of fluorine-18-radioactivity, Injection site (tail) (Ex vivo biodistribution; 60 min after injection): 0.42 %ID/g tissue
Uptake of fluorine-18-radioactivity, Injection site (tail) (Ex vivo biodistribution; 90 min after injection): 0.38 %ID/g tissue
Uptake of fluorine-18-radioactivity, Large int. Wall + contents (Ex vivo biodistribution; 5 min after injection): 0.30 %ID/g tissue
Uptake of fluorine-18-radioactivity, Large int. Wall + contents (Ex vivo biodistribution; 15 min after injection): 0.31 %ID/g tissue
Uptake of fluorine-18-radioactivity, Large int. Wall + contents (Ex vivo biodistribution; 30 min after injection): 0.33 %ID/g tissue
Uptake of fluorine-18-radioactivity, Large int. Wall + contents (Ex vivo biodistribution; 60 min after injection): 0.29 %ID/g tissue
Uptake of fluorine-18-radioactivity, Large int. Wall + contents (Ex vivo biodistribution; 90 min after injection): 0.28 %ID/g tissue
Uptake of fluorine-18-radioactivity, Liver (Ex vivo biodistribution; 5 min after injection): 0.77 %ID/g tissue
Uptake of fluorine-18-radioactivity, Liver (Ex vivo biodistribution; 15 min after injection): 0.82 %ID/g tissue
Uptake of fluorine-18-radioactivity, Liver (Ex vivo biodistribution; 30 min after injection): 0.49 %ID/g tissue
Uptake of fluorine-18-radioactivity, Liver (Ex vivo biodistribution; 60 min after injection): 0.43 %ID/g tissue
Uptake of fluorine-18-radioactivity, Liver (Ex vivo biodistribution; 90 min after injection): 0.31 %ID/g tissue
Uptake of fluorine-18-radioactivity, Lung (Ex vivo biodistribution; 5 min after injection): 5.94 %ID/g tissue
Uptake of fluorine-18-radioactivity, Lung (Ex vivo biodistribution; 15 min after injection): 4.04 %ID/g tissue
Uptake of fluorine-18-radioactivity, Lung (Ex vivo biodistribution; 30 min after injection): 2.27 %ID/g tissue
Uptake of fluorine-18-radioactivity, Lung (Ex vivo biodistribution; 60 min after injection): 1.79 %ID/g tissue
Uptake of fluorine-18-radioactivity, Lung (Ex vivo biodistribution; 90 min after injection): 1.47 %ID/g tissue
Uptake of fluorine-18-radioactivity, Muscle (Ex vivo biodistribution; 5 min after injection): 0.07 %ID/g tissue
Uptake of fluorine-18-radioactivity, Muscle (Ex vivo biodistribution; 15 min after injection): 0.07 %ID/g tissue
Uptake of fluorine-18-radioactivity, Muscle (Ex vivo biodistribution; 30 min after injection): 0.09 %ID/g tissue
Uptake of fluorine-18-radioactivity, Muscle (Ex vivo biodistribution; 60 min after injection): 0.11 %ID/g tissue
Uptake of fluorine-18-radioactivity, Muscle (Ex vivo biodistribution; 90 min after injection): 0.12 %ID/g tissue
Uptake of fluorine-18-radioactivity, Salivary x2 (Ex vivo biodistribution; salivary x2, 5 min after injection): 0.70 %ID/g tissue
Uptake of fluorine-18-radioactivity, Salivary x2 (Ex vivo biodistribution; salivary x2, 15 min after injection): 0.82 %ID/g tissue
Uptake of fluorine-18-radioactivity, Salivary x2 (Ex vivo biodistribution; salivary x2, 30 min after injection): 1.56 %ID/g tissue
Uptake of fluorine-18-radioactivity, Salivary x2 (Ex vivo biodistribution; salivary x2, 60 min after injection): 1.21 %ID/g tissue
Uptake of fluorine-18-radioactivity, Salivary x2 (Ex vivo biodistribution; salivary x2, 90 min after injection): 1.00 %ID/g tissue
Uptake of fluorine-18-radioactivity, Small int. wall + contents (Ex vivo biodistribution; 5 min after injection): 1.19 %ID/g tissue
Uptake of fluorine-18-radioactivity, Small int. wall + contents (Ex vivo biodistribution; 15 min after injection): 1.47 %ID/g tissue
Uptake of fluorine-18-radioactivity, Small int. wall + contents (Ex vivo biodistribution; 30 min after injection): 2.00 %ID/g tissue
Uptake of fluorine-18-radioactivity, Small int. wall + contents (Ex vivo biodistribution; 60 min after injection): 1.95 %ID/g tissue
Uptake of fluorine-18-radioactivity, Small int. wall + contents (Ex vivo biodistribution; 90 min after injection): 2.59 %ID/g tissue
Uptake of fluorine-18-radioactivity, Stomach wall + contents (Ex vivo biodistribution; 5 min after injection): 0.50 %ID/g tissue
Uptake of fluorine-18-radioactivity, Stomach wall + contents (Ex vivo biodistribution; 15 min after injection): 0.54 %ID/g tissue
Uptake of fluorine-18-radioactivity, Stomach wall + contents (Ex vivo biodistribution; 30 min after injection): 0.93 %ID/g tissue
Uptake of fluorine-18-radioactivity, Stomach wall + contents (Ex vivo biodistribution; 60 min after injection): 1.07 %ID/g tissue
Uptake of fluorine-18-radioactivity, Stomach wall + contents (Ex vivo biodistribution; 90 min after injection): 0.74 %ID/g tissue
Uptake of fluorine-18-radioactivity, Testis (Ex vivo biodistribution; 5 min after injection): 0.21 %ID/g tissue
Uptake of fluorine-18-radioactivity, Testis (Ex vivo biodistribution; 15 min after injection): 0.28 %ID/g tissue
Uptake of fluorine-18-radioactivity, Testis (Ex vivo biodistribution; 30 min after injection): 0.23 %ID/g tissue
Uptake of fluorine-18-radioactivity, Testis (Ex vivo biodistribution; 60 min after injection): 0.26 %ID/g tissue
Uptake of fluorine-18-radioactivity, Testis (Ex vivo biodistribution; 90 min after injection): 0.27 %ID/g tissue
Fraction of radioactivity unbound to the plasma proteins [2]: 6.6 ± 3.1%
Unchanged radiotracer, share of radioactivity in the brain ([3]; 20–30 min after injection): greater than 95%
Unchanged radiotracer, share of radioactivity in the brain ([3]; 90 min after injection, n = 3): 93.5 ± 2.8%
Unchanged radiotracer, share of radioactivity in the plasma ([3]; plasma, 90 min after injection, n = 3): 28.3 ± 6.4%
Ki (CBR): > 1 µM
